Assay results taken from patent publication US8124793B2, “Derivatives of ethylene methanedisulfonate as cancer chemotherapeutic agents” (priority 2007, dated 2012).

What was measured:
Format in all cases: cell-based
CCRF-CEM = assay: NCI screen, growth of human tumor cells: Leukemia CCRF-CEM; details: CCRF-CEM (Leukemia), 10^−4 molar
Summary of the method: (§1)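 NCI screening: compound applied to tumor cell lines at a given molar concentration, growth measured as percent. Minimum 60 data points/compound; cancer type noted.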

HL-60 (TB) = assay: NCI screen, growth of human tumor cells: Leukemia HL-60 (TB); details: HL-60 (TB) (Leukemia), 10^−4 molar
Experimental: (§2) In the NCI screening process, each compound was tested and described by a minimum of 60 data points. The test data include, but are not limited to the type of cancer, the molar concentration used in the screen, and the percent growth of the cancer. In some cases, NMR and elemental analysis were used for structural assignment.

K562 = assay: NCI screen, growth of human tumor cells: Leukemia K562; details: K562 (Leukemia), 10^−4 molar
Summary of the method: as §1

MOLT-4 = assay: NCI screen, growth of human tumor cells: Leukemia MOLT-4; details: MOLT-4 (Leukemia), 10^−4 molar
Experimental: as §2

RPMI-8226 = assay: NCI screen, growth of human tumor cells: Leukemia RPMI-8226; details: RPMI-8226 (Leukemia), 10^−4 molar
Summary of the method: as §1

SR = assay: NCI screen, growth of human tumor cells: Leukemia SR; details: SR
Summary of the method: as §1

AS49/ATCC = assay: NCI screen, growth of human tumor cells: Non-Small Cell Lung AS49/ATCC; details: AS49/ATCC (Non-Small Cell Lung), 10^−4 molar
Experimental: as §2

EKVX = assay: NCI screen, growth of human tumor cells: Non-Small Cell Lung EKVX; details: EKVX (Non-Small Cell Lung), 10^−4 molar
Summary of the method: as §1

HOP-62 = assay: NCI screen, growth of human tumor cells: Non-Small Cell Lung HOP-62; details: HOP-62, 10^−4 molar
Summary of the method: as §1

NCI-H226 = assay: NCI screen, growth of human tumor cells: Non-Small Cell Lung NCI-H226; details: NCI-H226 (Non-Small Cell Lung), 10^−4 molar
Summary of the method: as §1

NCI-H522 = assay: NCI screen, growth of human tumor cells: Non-Small Cell Lung NCI-H522; details: NCI-H522, 10^−4 molar
Experimental: as §2

NCI-H460 = assay: NCI screen, growth of human tumor cells: Non-Small Cell Lung NCI-H460; details: NCI-H460 (Non-Small Cell Lung), 10^−4 molar
Summary of the method: as §1

NCI-H322M = assay: NCI screen, growth of human tumor cells: Non-Small Cell Lung NCI-H322M; details: NCI-H322M, 10^−4 molar
Experimental: as §2

NCI-H23 = assay: NCI screen, growth of human tumor cells: Non-Small Cell Lung NCI-H23; details: NCI-H23, 10^−4 molar
Summary of the method: as §1

HCC-2998 = assay: NCI screen, growth of human tumor cells: HCC-2998 (listed under Non-Small Cell Lung); details: HCC-2998, 10^−4 molar
Experimental: as §2

COLO205 = assay: NCI screen, growth of human tumor cells: Colon Cancer COLO205; details: COLO205, 10^−4 molar
Summary of the method: as §1

HCT-116 = assay: NCI screen, growth of human tumor cells: Colon Cancer HCT-116; details: HCT-116 (Colon Cancer), 10^−4 molar
Summary of the method: as §1

HCT-15 = assay: NCI screen, growth of human tumor cells: Colon Cancer HCT-15; details: HCT-15, 10^−4 molar
Summary of the method: as §1

HT29 = assay: NCI screen, growth of human tumor cells: Colon Cancer HT29; details: HT29 (Colon Cancer), 10^−4 molar
Experimental: as §2

KM12 = assay: NCI screen, growth of human tumor cells: Colon Cancer KM12; details: KM12 (Colon Cancer), 10^−4 molar
Summary of the method: as §1

SF-268 = assay: NCI screen, growth of human tumor cells: CNS Cancer SF-268; details: SF-268 (CNS Cancer), 10^−4 molar
Summary of the method: as §1

SF-295 = assay: NCI screen, growth of human tumor cells: CNS Cancer SF-295
Summary of the method: as §1

SF-539 = assay: NCI screen, growth of human tumor cells: CNS Cancer SF-539
Summary of the method: as §1

U-251 = assay: NCI screen, growth of human tumor cells: CNS Cancer U-251; details: U-251 (CNS Cancer), 10^−4 molar
Summary of the method: as §1

M14 = assay: NCI screen, growth of human tumor cells: Melanoma M14; details: M14, 10^−4 molar
Summary of the method: as §1

MALME-3M = assay: NCI screen, growth of human tumor cells: Melanoma MALME-3M; details: MALME-3M, 10^−4 molar
Experimental: as §2

SK-MEL-2 = assay: NCI screen, growth of human tumor cells: Melanoma SK-MEL-2; details: SK-MEL-2 (Melanoma), 10^−4 molar
Experimental: as §2

SK-MEL-28 = assay: NCI screen, growth of human tumor cells: Melanoma SK-MEL-28; details: SK-MEL-28, 10^−4 molar
Experimental: as §2

SK-MEL-5 = assay: NCI screen, growth of human tumor cells: Melanoma SK-MEL-5; details: SK-MEL-5, 10^−4 molar
Summary of the method: as §1

UACC-257 = assay: NCI screen, growth of human tumor cells: Melanoma UACC-257; details: UACC-257, 10^−4 molar
Experimental: as §2

UACC-62 = assay: NCI screen, growth of human tumor cells: Melanoma UACC-62
Summary of the method: as §1

IGROVI = assay: NCI screen, growth of human tumor cells: Ovarian Cancer IGROVI; details: IGROVI (Ovarian Cancer), 10^−4 molar
Experimental: as §2

SK-OV-3 = assay: NCI screen, growth of human tumor cells: Ovarian Cancer SK-OV-3; details: SK-OV-3 (Ovarian Cancer), 10^−4 molar
Experimental: as §2

OVCAR-3 = assay: NCI screen, growth of human tumor cells: Ovarian Cancer OVCAR-3; details: OVCAR-3 (Ovarian Cancer), 10^−4 molar
Summary of the method: as §1

OVCAR-4 = assay: NCI screen, growth of human tumor cells: Ovarian Cancer OVCAR-4; details: OVCAR-4 (Ovarian Cancer), 10^−4 molar
Summary of the method: as §1

OVCAR-5 = assay: NCI screen, growth of human tumor cells: Ovarian Cancer OVCAR-5; details: OVCAR-5, 10^−4 molar
Experimental: as §2

786-0 = assay: NCI screen, growth of human tumor cells: Renal Cancer 786-0
Experimental: as §2

ACHN = assay: NCI screen, growth of human tumor cells: Renal Cancer ACHN; details: ACHN
Summary of the method: as §1

RXF-393 = assay: NCI screen, growth of human tumor cells: Renal Cancer RXF-393; details: RXF-393 (Renal Cancer), 10^−4 molar
Summary of the method: as §1

SN12C = assay: NCI screen, growth of human tumor cells: Renal Cancer SN12C; details: SN12C (Renal Cancer), 10^−4 molar
Summary of the method: as §1

CAKI-1 = assay: NCI screen, growth of human tumor cells: Renal Cancer CAKI-1; details: CAKI-1 (Renal Cancer), 10^−4 molar
Summary of the method: as §1

UO-31 = assay: NCI screen, growth of human tumor cells: Renal Cancer UO-31; details: UO-31 (Renal Cancer), 10^−4 molar
Summary of the method: as §1

DU-145 = assay: NCI screen, growth of human tumor cells: Prostate Cancer DU-145; details: DV-145, 10^−4 molar
Summary of the method: as §1

MCF 7 = assay: NCI screen, growth of human tumor cells: Breast Cancer MCF 7; details: MCF 7 (Breast Cancer), 10^−4 molar
Experimental: as §2

MCF7/ADR-RES = assay: NCI screen, growth of human tumor cells: Breast Cancer MCF7/ADR-RES; details: MCF7/ADR-RES (Breast Cancer), 10^−4 molar
Summary of the method: as §1

BT-549 = assay: NCI screen, growth of human tumor cells: Breast Cancer BT-549; details: BT-549, 10^−4 molar
Summary of the method: as §1

MDA-MB-435 = assay: NCI screen, growth of human tumor cells: Breast Cancer MDA-MB-435; details: MDA-MB-435, 10^−4 molar
Summary of the method: as §1

human cancer cells = assay: NCI screen summary over the cancers tested (negative growth of human cancer cells); details: cancers with negative growth / cancers tested
Experimental: as §2
The derivatives in the tables are grouped using the same category as in the tables 1-6.

`CC1=C(CC2(S(=O)(=O)C(F)(F)F)S(=O)(=O)OCCOS2(=O)=O)C(=O)c2ccccc2C1=O` [NSC 720682, ethylene trifluorosulfonyl-(3-methyl-1,4-naphtho-2-quinolyl)-1,1-ethanedisulfonate] was tested, and the “percent of growth of human tumor cells” value (CCRF-CEM) was −5%, the “percent of growth of human tumor cells” value (HL-60 (TB)) was −22% and the “percent of growth of human tumor cells” value (K562) was −11%. For the same molecule, the “percent of growth of human tumor cells” value (MOLT-4) was −11%, the “percent of growth of human tumor cells” value (RPMI-8226) was −4% and the “% Growth” value (SR; 10^−4 molar) was −14%. For the same molecule, the “% Growth” value (SR; 10^−5 molar) was 30%, the “percent of growth of human tumor cells” value (AS49/ATCC) was −37% and the “percent of growth of human tumor cells” value (EKVX) was −36%. For the same molecule, the “% Growth” value (HOP-62) was −96%, the “percent of growth of human tumor cells” value (NCI-H226) was −45% and the “% Growth” value (NCI-H522) was −72%. For the same molecule, the “percent of growth of human tumor cells” value (NCI-H460) was −59%, the “% Growth” value (NCI-H322M) was −97% and the “% Growth” value (NCI-H23) was −68%. The “% Growth” value (HCC-2998) was −88%, the “% Growth” value (COLO205) was −88% and the “percent of growth of human tumor cells” value (HCT-116) was 19%. For the same molecule, the “% Growth” value (HCT-15) was −72%, the “percent of growth of human tumor cells” value (HT29) was −43% and the “percent of growth of human tumor cells” value (KM12) was 20%. For the same molecule, the “percent of growth of human tumor cells” value (SF-268) was 1%, the “% Growth” value (SF-295; SF-295, 10^−4 molar) was −78% and the “% Growth” value (SF-295; SF-295, 10^−5 molar) was 53%. For the same molecule, the “% Growth” value (SF-539; SF-539, 10^−4 molar) was −69%, the “% Growth” value (SF-539; SF-539, 10^−5 molar) was 57% and the “percent of growth of human tumor cells” value (U-251) was −36%. The “% Growth” value (M14) was −90%, the “% Growth” value (MALME-3M) was −89% and the “percent of growth of human tumor cells” value (SK-MEL-2) was −58%. For the same molecule, the “% Growth” value (SK-MEL-28) was −85%, the “% Growth” value (SK-MEL-5) was −91% and the “% Growth” value (UACC-257) was −64%. For the same molecule, the “% Growth” value (UACC-62; UACC-62, 10^−4 molar) was −73%, the “% Growth” value (UACC-62; UACC-62, 10^−5 molar) was 55% and the “percent of growth of human tumor cells” value (IGROVI) was −18%. For the same molecule, the “percent of growth of human tumor cells” value (SK-OV-3) was 20%, the “percent of growth of human tumor cells” value (OVCAR-3) was −42% and the “percent of growth of human tumor cells” value (OVCAR-4) was −23%. For the same molecule, the “% Growth” value (OVCAR-5) was −87%, the “% Growth” value (786-0; 786-0, 10^−4 molar) was −20% and the “% Growth” value (786-0; 786-0, 10^−5 molar) was 49%. The “% Growth” value (ACHN; 10^−4 molar) was −21%, the “% Growth” value (ACHN; 10^−5 molar) was 55% and the “percent of growth of human tumor cells” value (RXF-393) was 24%. For the same molecule, the “percent of growth of human tumor cells” value (SN12C) was −70%, the “percent of growth of human tumor cells” value (CAKI-1) was 16% and the “percent of growth of human tumor cells” value (UO-31) was 29%. For the same molecule, the “% Growth” value (DU-145) was −99%, the “percent of growth of human tumor cells” value (MCF 7) was 1% and the “percent of growth of human tumor cells” value (MCF7/ADR-RES) was 1%. The “% Growth” value (BT-549) was −78%, the “% Growth” value (MDA-MB-435) was −86% and the “Percentage of cancers showing negative growth cancers tested” value (human cancer cells; 10^−4 M conc.) was 81%. For the same molecule, the “Percentage of cancers showing negative growth cancers tested” value (human cancer cells; 10^−5 M conc.) was 17%.
